Reference: publication PMC4320098, “Identification and Characterization of a Novel Phosphodiesterase from the Metagenome of an Indian Coalbed” (PLoS ONE, 2015)

Assays:
PdeM = PdeM (uncultured organism, UniProt S5THN5); experiment: p-nitrophenol release, absorbance […] nm, Michaelis-Menten non-linear fit; format: biochemical; details: 2 mM MnCl2, 50 mM Tris-HCl pH 8.5, 5 mM beta-ME, 10 mM NaCl, 25 °C, 30 min
[1] = test system: O=[N+]([O-])c1ccc(OP(=O)(O)Oc2ccc([N+](=O)[O-])cc2)cc1; experiment: purified protein; format: biochemical, uncultured organism; details: pH 8.5; 25.0 °C

Sequence of PdeM (S5THN5 entry or part of it): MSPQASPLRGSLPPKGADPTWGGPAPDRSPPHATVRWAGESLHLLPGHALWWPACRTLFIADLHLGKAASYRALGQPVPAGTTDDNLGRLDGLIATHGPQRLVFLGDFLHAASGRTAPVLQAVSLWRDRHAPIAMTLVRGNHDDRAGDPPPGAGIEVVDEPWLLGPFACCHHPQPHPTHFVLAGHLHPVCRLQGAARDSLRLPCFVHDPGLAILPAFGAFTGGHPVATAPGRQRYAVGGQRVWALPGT

O=[N+]([O-])c1ccc(OP(=O)(O)c2ccccc2)cc1 [pNPPP]
Km (PdeM): 7.2 ± 1.4 mM

PdeM (uncultured organism)
Km [1]: 10.21 ± 1.6 mM
